From patent publication US20230159532A1, “PARATHYROID HORMONE (PTH) RECEPTOR ANTAGONISTS AND USES THEREOF” (Crinetics Pharmaceuticals, Inc., priority 2021, published 2023) come the findings set out here.

The assay addresses T1, human PTHR1 receptor (Homo sapiens, UniProt Q03431).
T1 construct: purchased Eurofins HTS030M
T1 sequence (Q03431 27-593): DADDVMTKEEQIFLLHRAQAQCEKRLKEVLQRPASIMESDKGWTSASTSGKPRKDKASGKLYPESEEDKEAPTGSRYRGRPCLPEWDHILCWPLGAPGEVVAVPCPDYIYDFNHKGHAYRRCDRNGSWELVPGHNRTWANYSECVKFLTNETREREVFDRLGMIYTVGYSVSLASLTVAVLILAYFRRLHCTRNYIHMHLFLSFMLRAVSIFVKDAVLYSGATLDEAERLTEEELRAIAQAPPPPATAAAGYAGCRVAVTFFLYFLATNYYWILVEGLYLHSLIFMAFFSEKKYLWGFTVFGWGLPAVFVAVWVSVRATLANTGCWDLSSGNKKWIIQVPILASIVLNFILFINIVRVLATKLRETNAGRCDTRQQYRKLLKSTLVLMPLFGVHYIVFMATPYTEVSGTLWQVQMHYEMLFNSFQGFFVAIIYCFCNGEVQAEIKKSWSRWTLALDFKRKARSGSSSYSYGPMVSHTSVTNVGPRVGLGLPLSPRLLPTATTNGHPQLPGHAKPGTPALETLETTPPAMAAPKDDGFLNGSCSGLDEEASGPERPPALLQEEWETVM
As to the kind of experiment: Competitive antagonist binding assay for hPTH-R1 (radioactive competition binding, SPA beads). The following applies: human PTHR1 membranes, [125I]-[Nle8,18,Tyr34]-PTH(1-34) 0.2 nM, 90 minutes at room temperature; read-out: hPTHR1 Ki. As to the method:
Competitive Antagonist Binding Assay Protocol for hPTH-R1 Antagonists:
The inhibition of binding to the human PTHR1 receptor was measured in a radioactive competition binding assay using the radiolabeled [^125I]-[NLE^8,18, TYR^34]-parathyroid hormone (1-34) ligand (PerkinElmer Cat# NEX244, custom synthesis) as the probe ligand for the receptor. Briefly, membranes from cells expressing the human PTHR1 (Eurofins Cat# HTS030M) were incubated with SPA beads (PerkinElmer Cat# RPNQ0001) in binding assay buffer [50 mM HEPES (Biopioneer Cat# C0113), 5 mM MgCl2 (Sigma Cat# M8266), 10 mM CaCl2 (Fisher Scientific Cat# BP510), 0.1% BSA (Fisher Scientific Cat# BP1600), 0.01% TritonX-100 (Bio-Rad Cat#161-0407), and protease inhibitors (Pierce Cat# A32963); pH 7.4]. Membranes bound to SPA bead were treated with various dilutions of compounds (final concentrations typically 0-10,000 nM), and 0.2 nM radiolabeled ligand in 96-well isoplates (PerkinElmer Cat#6005040) for 90 minutes at room temperature. The radioactive signal was detected using a MicroBetaTriLux 1450 LSC (PerkinElmer). All data manipulations to determine the Ki values were performed using GraphPad v8 (GraphPad, San Diego Calif.).

For the compound `CCN1C(=O)N(c2c(F)cc(NCC(=O)O)cc2F)c2cc(Cl)ccc2-c2cc(Cl)cnc21` [1-41, 2-[(4-{4,13-dichloro-8-ethyl-9-oxo-6,8,10-triazatricyclo[9.4.0.0^2,7]pentadeca-1(11),2(7),3,5,12,14-hexaen-10-yl}-3,5-difluorophenyl)amino]acetic acid], the Ki was above 10000 nM.
The value for `CCN1C(=O)N(c2c(F)cc(N3CC[C@@H](N)C3)cc2F)c2cc(Cl)ccc2-c2cc(Cl)cnc21` [1-42, 10-{4-[(3R)-3-aminopyrrolidin-1-yl]-2,6-difluorophenyl}-4,13-dichloro-8-ethyl-6,8,10-triazatricyclo[9.4.0.0^2,7]pentadeca-1(11),2(7),3,5,12,14-hexaen-9-one] was below 100 nM; that for `CCN1C(=O)N(c2c(F)cc(N3CC[C@H](N)C3)cc2F)c2cc(Cl)ccc2-c2cc(Cl)cnc21` [1-43, 10-{4-[(3S)-3-aminopyrrolidin-1-yl]-2,6-difluorophenyl}-4,13-dichloro-8-ethyl-6,8,10-triazatricyclo[9.4.0.0^2,7]pentadeca-1(11),2(7),3,5,12,14-hexaen-9-one] was below 100 nM.
The value for `CCN1C(=O)N(c2c(F)cc(N3CC(N)C3)cc2F)c2cc(Cl)ccc2-c2cc(Cl)cnc21` [1-44, 10-[4-(3-aminoazetidin-1-yl)-2,6-difluorophenyl]-4,13-dichloro-8-ethyl-6,8,10-triazatricyclo[9.4.0.0^2,7]pentadeca-1(11),2(7),3,5,12,14-hexaen-9-one] was below 100 nM.
The value for `CNCCNc1cc(F)c(N2C(=O)N(CC(F)(F)F)c3ncc(Cl)cc3-c3ccc(Cl)cc32)c(F)c1` [1-45, 4,13-dichloro-10-(2,6-difluoro-4-{[2-(methylamino)ethyl]amino}phenyl)-8-(2,2,2-trifluoroethyl)-6,8,10-triazatricyclo[9.4.0.0^2,7]pentadeca-1(11),2(7),3,5,12,14-hexaen-9-one] was below 100 nM; that for `CNCCNc1cc(F)c(N2C(=O)N(CC3CC3)c3ncc(Cl)cc3-c3ccc(Cl)cc32)c(F)c1` [1-46, 4,13-dichloro-8-(cyclopropylmethyl)-10-(2,6-difluoro-4-{[2-(methylamino)ethyl]amino}phenyl)-6,8,10-triazatricyclo[9.4.0.0^2,7]pentadeca-1(11),2(7),3,5,12,14-hexaen-9-one] was below 100 nM.
For the compound `CC(C)N1C(=O)N(c2c(F)cc(NCCNCCO)cc2F)c2cc(Cl)ccc2-c2cc(Cl)cnc21` [1-47, 4,13-dichloro-10-[2,6-difluoro-4-({2-[(2-hydroxyethyl)amino]ethyl}amino)phenyl]-8-(propan-2-yl)-6,8,10-triazatricyclo[9.4.0.0^2,7]pentadeca-1(11),2(7),3,5,12,14-hexaen-9-one], the Ki was below 100 nM.
Turning to `O=C1N(CC(F)(F)F)c2ncc(Cl)cc2-c2ccc(Cl)cc2N1c1c(F)cc(NCCNCCO)cc1F` [1-48, 4,13-dichloro-10-[2,6-difluoro-4-({2-[(2-hydroxyethyl)amino]ethyl}amino)phenyl]-8-(2,2,2-trifluoroethyl)-6,8,10-triazatricyclo[9.4.0.0^2,7]pentadeca-1(11),2(7),3,5,12,14-hexaen-9-one], the Ki is below 100 nM.
The same measure for `CCCN1C(=O)N(c2c(F)cc(NCCNCCO)cc2F)c2cc(Cl)ccc2-c2cc(Cl)cnc21` [1-49, 4,13-dichloro-10-[2,6-difluoro-4-({2-[(2-hydroxyethyl)amino]ethyl}amino)phenyl]-8-propyl-6,8,10-triazatricyclo[9.4.0.0^2,7]pentadeca-1(11),2(7),3,5,12,14-hexaen-9-one]: below 100 nM.
As for `CCN1C(=O)N(c2c(F)cc(NCCC(=O)O)cc2F)c2cc(Cl)ccc2-c2cc(Cl)cnc21` [1-50, 3-[(4-{4,13-dichloro-8-ethyl-9-oxo-6,8,10-triazatricyclo[9.4.0.0^2,7]pentadeca-1(11),2(7),3,5,12,14-hexaen-10-yl}-3,5-difluorophenyl)amino]propanoic acid], the inhibition constant Ki is above 10000 nM.
